The source of these data is patent US8435778B2, “Gene encoding lignan methyltransferase and use thereof” (Suntory Holdings Limited, priority 2010, dated 2013).

The assay deals with AsOMT116. In words: Enzyme reaction of crude recombinant AsOMT116 with thujaplicatin and S-adenosylmethionine, product analysed by GC-MS. The following applies: 0.01 mM substrate, 0.04 mM S-adenosylmethionine, about 3 mg crude enzyme from E. coli, pH 7.5, 30° C., one hour; product identified as 5-methylthujaplicatin by GC-MS. The class given is biochemical, Anthrissus sylvestris. How it is done: To clarify the biochemical enzyme functions, the enzymes were expressed in Escherichia coli. Using the plasmid for expression of AsOMT116 Escherichia coli obtained above, Escherichia coli BL21 (DE3) strain was transformed in a conventional manner. The resulting transformants were inoculated in 4 ml of LB medium (10 g/l tryptone peptone, 5 g/l yeast extract, 1 g/l NaCl) containing 50 μg/ml of ampicillin followed by shake culture at 37° C. overnight. When the cells reached the stationary phase, 4 ml of the culture broth was inoculated into 80 ml of fresh medium of the same composition, followed by shake culture at 37° C. At the point when the cell turbidity (OD600) reached approximately 0.5, 0.5 mM IPTG in a final concentration was added to the cells, followed by shake culture at 18° C. for 20 hours.
The following procedures were all carried out at 4° C. The transformants cultured were collected by centrifugation (5,000×g, 10 minutes) and suspended by adding 1 ml/g cell of lysis buffer (20 mM HEPES buffer (pH 7.5), 14 mM β-mercaptoethanol). Subsequently, the suspension was ultrasonicated (15 secs.×8 times) and then centrifuged (15,000×g, 15 minutes). The supernatant (soluble fraction) obtained was recovered as a crude enzyme solution. The crude enzyme solution was used for enzyme analysis.
Conditions for the enzyme reaction are as follows. […]

For the molecule `COc1cc(C[C@H]2COC(=O)[C@@H]2Cc2cc(O)c(O)c(OC)c2)ccc1O` [thujaplicatin], the “lignan methylation activity (methylation of substrate by AsOMT116)” value is given as “specifically methylates the 5-position”.
